Test results taken from the NIST ThermoML archive (doi:10.1016/j.fluid.2012.09.001).
Values joined by “and” are separate entries in the source; they are usually repeats but may differ in a detail not shown here. Identical values can stand only once.

Assay: molar heat capacity at constant pressure
Conditions: 101.33 kPa, Liquid, Flow calorimetry

CC(C)(Cl)Cl [2,2-dichloropropane]
Conditions	molar heat capacity at constant pressure
260.64 K	150.33 J/K/mol and 150.49 J/K/mol and 150.24 J/K/mol
268.3 K	151.41 J/K/mol and 151.24 J/K/mol and 150.99 J/K/mol
278.52 K	152.32 J/K/mol and 152.24 J/K/mol
288.72 K	153.98 J/K/mol and 153.82 J/K/mol and 154.07 J/K/mol
298.93 K	155.65 J/K/mol and 154.98 J/K/mol
309.14 K	157.39 J/K/mol and 157.14 J/K/mol and 156.98 J/K/mol
319.35 K	159.22 J/K/mol and 158.81 J/K/mol and 158.89 J/K/mol
329.56 K	161.13 J/K/mol and 160.22 J/K/mol

CCC(Cl)Cl [1,1-dichloropropane]
Conditions	molar heat capacity at constant pressure
268.3 K	148.83 J/K/mol and 149.66 J/K/mol
268.31 K	149.49 J/K/mol
278.51 K	150.33 J/K/mol and 150.24 J/K/mol and 149.99 J/K/mol
288.72 K	151.82 J/K/mol and 151.99 J/K/mol and 152.4 J/K/mol
298.93 K	152.82 J/K/mol and 153.65 J/K/mol
309.14 K	155.23 J/K/mol and 154.57 J/K/mol and 154.15 J/K/mol
319.35 K	155.9 J/K/mol and 157.73 J/K/mol and 155.56 J/K/mol
329.56 K	157.23 J/K/mol and 157.31 J/K/mol and 157.64 J/K/mol
339.77 K	158.97 J/K/mol and 159.06 J/K/mol and 159.31 J/K/mol

Cl/C=C/Cl [(E)-1,2-dichloroethene]
Conditions	molar heat capacity at constant pressure
268.3 K	112.74 J/K/mol [middle of 4 runs]
278.51 K	112.83 J/K/mol [middle of 4 runs]
288.72 K	113.41 J/K/mol [middle of 4 runs]
298.93 K	113.99 J/K/mol [middle of 4 runs]
309.14 K	114.49 J/K/mol [middle of 4 runs]

ClC=C(Cl)Cl [trichloroethene]
Conditions	molar heat capacity at constant pressure
260.64 K	126.71 J/K/mol and 126.63 J/K/mol
265.75 K	126.71 J/K/mol and 126.8 J/K/mol and 126.96 J/K/mol
270.85 K	126.96 J/K/mol [middle of 4 runs]
275.96 K	127.13 J/K/mol [middle of 4 runs]
281.06 K	127.38 J/K/mol and 127.46 J/K/mol and 127.79 J/K/mol
286.17 K	127.96 J/K/mol and 127.88 J/K/mol and 128.38 J/K/mol
291.27 K	128.38 J/K/mol [middle of 4 runs]
296.38 K	128.54 J/K/mol [middle of 4 runs]
301.48 K	128.96 J/K/mol [middle of 4 runs]
309.14 K	129.21 J/K/mol and 129.04 J/K/mol and 130.29 J/K/mol
319.35 K	130.29 J/K/mol and 131.12 J/K/mol
329.56 K	130.95 J/K/mol and 131.12 J/K/mol

CC(Cl)CCl (configuration not stated) [1,2-dichloropropane]
Conditions	molar heat capacity at constant pressure
268.3 K	153.32 J/K/mol and 152.99 J/K/mol
278.51 K	154.15 J/K/mol and 153.9 J/K/mol
288.72 K	155.4 J/K/mol and 155.15 J/K/mol
298.93 K	156.81 J/K/mol and 156.64 J/K/mol
309.14 K	158.06 J/K/mol and 157.73 J/K/mol
319.35 K	159.39 J/K/mol and 159.22 J/K/mol
329.56 K	161.05 J/K/mol and 161.22 J/K/mol
339.77 K	162.8 J/K/mol

Cl/C=C\Cl [(Z)-1,2-dichloroethene]
Conditions	molar heat capacity at constant pressure
258.09 K	110.33 J/K/mol and 110.08 J/K/mol
263.2 K	110.33 J/K/mol and 110.42 J/K/mol
268.3 K	110.58 J/K/mol and 110.75 J/K/mol
273.41 K	111 J/K/mol
278.51 K	111.08 J/K/mol and 111 J/K/mol
283.62 K	111.41 J/K/mol and 111.58 J/K/mol
288.72 K	111.91 J/K/mol and 111.75 J/K/mol
293.83 K	112.58 J/K/mol [middle of 4 runs]
298.93 K	112.99 J/K/mol and 112.66 J/K/mol and 112.49 J/K/mol
304.04 K	113.41 J/K/mol and 113.49 J/K/mol
309.14 K	113.91 J/K/mol and 113.74 J/K/mol

ClC(Cl)(Cl)c1ccccc1 [(trichloromethyl)benzene]
Conditions	molar heat capacity at constant pressure
260.64 K	209.61 J/K/mol and 209.36 J/K/mol and 209.11 J/K/mol
265.75 K	210.94 J/K/mol and 210.44 J/K/mol and 210.27 J/K/mol
270.85 K	211.44 J/K/mol and 211.35 J/K/mol and 211.19 J/K/mol
275.96 K	212.52 J/K/mol and 212.77 J/K/mol
281.06 K	214.18 J/K/mol and 213.93 J/K/mol
286.17 K	215.59 J/K/mol and 215.34 J/K/mol
291.27 K	217.09 J/K/mol and 217.01 J/K/mol and 216.92 J/K/mol
296.38 K	217.76 J/K/mol and 217.92 J/K/mol and 218.01 J/K/mol
301.48 K	219.34 J/K/mol and 219.17 J/K/mol and 219.25 J/K/mol
309.14 K	220.75 J/K/mol
319.35 K	223.83 J/K/mol
329.56 K	226.49 J/K/mol
339.77 K	228.56 J/K/mol
349.98 K	230.89 J/K/mol
